MIC data for five molecules are collected here from DBAASP.

Test systems include Cladosporium sp.; Cryptococcus neoformans; Escherichia coli SBS 363; Micrococcus luteus A270; Penicillium expansum; Escherichia coli D31.
Holding throughout (assay): ≥ marks a high value that may be exact or a test limit, other limits are often not marked, values filed in µg/mL are converted to µM
In assay [1] the test system is Candida albicans IOC 4558.
Assay [2] deals with Candida tropicalis IOC 4560.
Assay [3] relates to Pseudomonas aeruginosa ATCC 27853.
Assay [4] relates to Candida tropicalis 092422.
In assay [5] the test system is Bacillus subtilis KCTC 1998.
Assay [6] relates to Candida albicans KCTC 7270.
Assay [7] relates to Escherichia coli ATCC 25922.
The test system of assay [8] is Escherichia coli CCARM 1229.
The test system of assay [9] is Escherichia coli CCARM 1238.
The test system of assay [10] is Listeria monocytogenes KCTC 3710.
Assay [11] concerns Pseudomonas aeruginosa 4007.
In assay [12] the test system is Pseudomonas aeruginosa 4891.
The subject of assay [13] is Salmonella typhimurium KCTC 1926.
Assay [14] has as its system Staphylococcus aureus ATCC 25923.
Assay [15] relates to Staphylococcus aureus CCARM 3090.
Assay [16] deals with Staphylococcus aureus CCARM 3518.
For assay [17], the system named is Trichosporon beigelii KCTC 7707.
The test system of assay [18] is Pseudomonas aeruginosa ATCC 47615.
In assay [19] the test system is Staphylococcus aureus ATCC 29213.
Assay [20] concerns Staphylococcus aureus ATCC 33591.
Assay [21] has as its system Staphylococcus epidermidis ATCC 35984.
Assay [22] deals with Klebsiella pneumoniae ATCC 700603.
For assay [23], the system named is Pseudomonas aeruginosa ATCC 10145.
The subject of assay [24] is Staphylococcus aureus ATCC 27660.

In brackets after ≈: the same amount, converted by molar mass. Where only a bound is given, the exact number is not on record here.

One may read the MIC as the lowest concentration that inhibits growth of the organism.

Consider `CC(C)C[C@H](NC(=O)[C@H](Cc1ccccc1)NC(=O)[C@H](CC(=O)O)NC(=O)CNC(=O)[C@H](CCC(=O)O)NC(=O)CNC(=O)[C@H](CO)NC(=O)[C@H](CC(=O)O)NC(=O)[C@H](C)N)C(=O)N[C@@H](C)C(=O)N[C@@H](CCC(=O)O)C(=O)NCC(=O)NCC(=O)NCC(=O)N[C@H](C(=O)N[C@@H](CCCN=C(N)N)C(=O)O)C(C)C` [ADSGEGDFLAEGGGVR], for which the MIC was not below 59.4 µM in [1]; 7.39 µM (≈ 11.4 µg/mL) in assay [2]; not below 59.4 µM against Cladosporium sp.; not below 59.4 µM in the assay on Cryptococcus neoformans; 7.39 µM (≈ 11.4 µg/mL) in the assay with Escherichia coli SBS 363; not below 59.4 µM against Micrococcus luteus A270. The MIC against Penicillium expansum was not below 59.4 µM; in assay [3] it was 7.39 µM (≈ 11.4 µg/mL).

Molecule `CC[C@H](C)[C@H](NC(=O)[C@H](C)NC(=O)[C@@H]1CCCN1C(=O)[C@@H](NC(=O)[C@@H](N)Cc1ccccc1)C(C)C)C(=O)N[C@@H](CC(C)C)C(=O)N[C@H]1CSSC[C@@H](C(=O)O)NC(=O)[C@H]([C@@H](C)O)NC(=O)[C@H](CCCCN)NC(=O)[C@H](CC(C)C)NC(=O)[C@H]([C@@H](C)CC)NC(=O)[C@H](CO)NC1=O` [FVPAILCSILKTC] returned an MIC in assay [4] not below 71 µM.

`CC[C@H](C)[C@H](NC(=O)CNC(=O)[C@H](CCC(N)=O)NC(=O)[C@H](CO)NC(=O)[C@@H](NC(=O)[C@H](CCCCN)NC(=O)[C@H](CCCCN)NC(=O)[C@H](CC(C)C)NC(=O)[C@H](C)NC(=O)[C@H](CC(N)=O)NC(=O)[C@H](CC(C)C)NC(=O)CN)C(C)C)C(=O)N[C@@H](Cc1cnc[nH]1)C(=O)N[C@@H](CCC(=O)O)C(=O)N[C@@H](CO)C(=O)N[C@H](C(=O)N[C@@H](CCCCN)C(=O)N[C@@H](CC(C)C)C(=O)N[C@H](C(=O)N[C@@H](CC(N)=O)C(=O)N[C@@H](CC(N)=O)C(=O)N[C@@H](Cc1cnc[nH]1)C(=O)N[C@H](C(=O)N[C@@H](CCC(N)=O)C(N)=O)C(C)C)[C@@H](C)CC)[C@@H](C)CC` [GLNALKKVSQGIHESIKLINNHVQ]: the MIC in assay [5] was not below 32 µM; in [6], not below 64 µM; in assay [7], 16 µM (≈ 42.2 µg/mL); in assay [8], not below 64 µM; in [9], not below 64 µM; in assay [10], not below 32 µM. Also, the minimal inhibitory concentration (MIC) was not below 64 µM in assay [11]; not below 64 µM in assay [12]; 16 µM (≈ 42.2 µg/mL) in assay [3]; 16 µM (≈ 42.2 µg/mL) in assay [13]; 32 µM (≈ 84.5 µg/mL) in assay [14]; not below 64 µM in assay [15]. The minimal inhibitory concentration (MIC) in [16] and in assay [17] was not below 64 µM each time.

As to `CC[C@H](C)[C@H](NC(=O)[C@H](CCCCN)NC(=O)[C@@H](NC(=O)[C@H](Cc1ccccc1)NC(=O)[C@H](C)NC(=O)[C@H](CCCCN)NC(=O)CNC(=O)[C@H](Cc1ccccc1)NC(=O)[C@H](CCCCN)NC(=O)[C@H](CCCCN)NC(=O)[C@H](C)NC(=O)[C@H](CCCCN)NC(=O)[C@H](CCCCN)NC(=O)[C@H](CC(C)C)NC(=O)[C@H](Cc1ccccc1)NC(=O)[C@@H](N)CCCCN)C(C)C)C(=O)N[C@@H](CC(C)C)C(N)=O` [KFLKKAKKFGKAFVKIL], the MIC in [7] is 3.91 µM (≈ 7.8 µg/mL); in assay [3] it was 0.251 µM (≈ 0.5 µg/mL); in assay [18] it was 1.96 µM (≈ 3.91 µg/mL); in assay [14], 5.67 µM (≈ 11.3 µg/mL); in assay [19] it was 15.6 µM (≈ 31.2 µg/mL); in assay [20], 16 µM (≈ 32 µg/mL). In assay [21], this molecule came in with a minimum inhibitory concentration (MIC) of 1 µM (≈ 2 µg/mL).

For `CC[C@H](C)[C@H](NC(=O)CNC(=O)[C@H](CCCCN)NC(=O)[C@H](Cc1ccccc1)NC(=O)[C@H](CC(C)C)NC(=O)[C@H](CCCCN)NC(=O)[C@H](CCCCN)NC(=O)[C@H](C)NC(=O)[C@H](CCCCN)NC(=O)[C@H](CCCCN)NC(=O)[C@H](Cc1ccccc1)NC(=O)CNC(=O)[C@H](CCCCN)NC(=O)[C@H](C)NC(=O)[C@H](Cc1c[nH]c2ccccc12)NC(=O)[C@@H](NC(=O)[C@H](CCCCN)NC(=O)[C@@H](NC(=O)[C@H](CC(C)C)NC(=O)[C@H](CCCCN)NC(=O)[C@@H](N)CCCCN)[C@@H](C)CC)C(C)C)C(=O)NCC(=O)O` [KKLIKVWAKGFKKAKKLFKGIG], the MIC in the assay with Escherichia coli D31 amounted to 0.94 µM (≈ 2.37 µg/mL); in assay [22] it was 1.88 µM (≈ 4.73 µg/mL); in assay [23], 1.88 µM (≈ 4.73 µg/mL); in assay [24], 0.94 µM (≈ 2.37 µg/mL).
